Where a SMILES comes first, the peptide text is derived from it. Bridges are numbered along the chain shown (N, C = ends). [ ]: non-standard residue; d: D form. Hyp = O=C(O)[C@@H]1C[C@@H](O)CN1; Cit = NC(=O)NCCC[C@H](N)C(=O)O; Pen = CC(C)(S)[C@H](N)C(=O)O; dDab = NCC[C@@H](N)C(=O)O; Dab = NCC[C@H](N)C(=O)O
Legend:
Type in all cases: cell-based
[1] = system: Klebsiella pneumoniae SSI3010; conditions: SSI3010
Summary of the method: (§1)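 MICs were determined by CLSI broth microdilution in cation-adjusted Mueller-Hinton II broth with about 5×10^5 CFU/mL inoculum. Peptides were tested in two-fold serial dilutions with 0.002% polysorbate 80 final. MIC in μg/mL is the lowest concentration with no visible growth after 18-20 h at 35 °C.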

[2] = system: Escherichia coli MCR-1 Af 45; conditions: MCR-1 Af 45
Summary of the method: as §1

[3] = system: Escherichia coli ATCC 25922; conditions: ATCC 25922
Summary of the method: as §1

[4] = system: human red blood cells (hRBC); conditions: red cells of human, 1 h, 200 μg/mL
Summary of the method: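 Percent hemolysis derived from OD540 of supernatants relative to full lysis by 2.5% Triton X-100 (PBS baseline). Washed fresh human erythrocytes (20% v/v) were exposed to 200 μg/mL peptide for 1 h at 37 °C with shaking.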

Row | Klebsiella pneumoniae SSI3010 MIC [1] [µg/mL] | Escherichia coli MCR-1 Af45 MIC [2] [µg/mL] | Escherichia coli ATCC 25922 MIC [3] [µg/mL] | Compound | Hemolysis at 0.2 g/L [4] [%]
1 | 0.25 | 0.125 | 0.25 | CC[C@H](C)[C@H](NC(=O)[C@@H]1C[C@@H](O)CN1C(=O)[C@@H](N)C(C)C)C(=O)N[C@@H]1C(=O)N[C@@H](Cc2ccc(O)cc2)C(=O)N[C@@H](CO)C(=O)N[C@@H](CC(N)=O)C(=O)N[C@@H](CCCNC(=N)N)C(=O)N[C@@H](CCN)C(=O)N[C@@H]([C@@H](C)O)C(=O)N[C@H](CCN)C(=O)N[C@@H](CO)C(=O)N[C@@H](CCN)C(=O)N[C@@H](CCN)C(=O)N[C@H](C(=O)N[C@@H](Cc2ccc(O)cc2)C(=O)O)CSSC1(C)C [Example 44, Val-Hyp-Ile-Pen-Tyr-Ser-Asn-Arg-Dab-Thr-^DDab-Ser-Dab-Dab-Cys-Tyr] (H-V[Hyp]I[Pen]YSNR[Dab]T[dDab]S[Dab][Dab]CY-OH; disulfide 4-15) | <1
2 | 0.0625 | 0.125 | 0.125 | CC[C@H](C)[C@H](NC(=O)[C@@H]1C[C@@H](O)CN1C(=O)[C@@H](N)C(C)C)C(=O)N[C@@H]1C(=O)N[C@@H](Cc2ccc(O)cc2)C(=O)N[C@@H](CCN)C(=O)N[C@@H](CC(N)=O)C(=O)N[C@@H](CCCNC(=N)N)C(=O)N[C@@H](CCN)C(=O)N[C@@H]([C@@H](C)O)C(=O)N[C@H](CCN)C(=O)N[C@@H](CCCCN)C(=O)N[C@@H](CO)C(=O)N[C@@H](CCN)C(=O)N[C@H](C(=O)N[C@@H](Cc2ccc(O)cc2)C(=O)O)CSSC1(C)C [Example 45, Val-Hyp-Ile-Pen-Tyr-Dab-Asn-Arg-Dab-Thr-^DDab-Lys-Ser-Dab-Cys-Tyr] (H-V[Hyp]I[Pen]Y[Dab]NR[Dab]T[dDab]KS[Dab]CY-OH; disulfide 4-15) | <1
3 | 0.5 | 0.25 | 0.5 | CC[C@H](C)[C@H](NC(=O)[C@@H]1C[C@@H](O)CN1C(=O)[C@@H](N)C(C)C)C(=O)N[C@@H]1C(=O)N[C@@H](Cc2ccc(O)cc2)C(=O)N[C@@H](CO)C(=O)N[C@@H](CC(N)=O)C(=O)N[C@@H](CCCNC(=N)N)C(=O)N[C@@H](CCN)C(=O)N[C@@H]([C@@H](C)O)C(=O)N[C@H](CCN)C(=O)N[C@@H](CCCCN)C(=O)N[C@@H](C)C(=O)N[C@@H](CCN)C(=O)N[C@H](C(=O)N[C@@H](Cc2ccc(O)cc2)C(=O)O)CSSC1(C)C [Example 46, Val-Hyp-Ile-Pen-Tyr-Ser-Asn-Arg-Dab-Thr-^DDab-Lys-Ala-Dab-Cys-Tyr] (H-V[Hyp]I[Pen]YSNR[Dab]T[dDab]KA[Dab]CY-OH; disulfide 4-15) | <1
4 | 0.5 | 0.25 | 0.25 | CC[C@H](C)[C@H](NC(=O)[C@@H]1C[C@@H](O)CN1C(=O)[C@@H](N)C(C)C)C(=O)N[C@@H]1C(=O)N[C@@H](Cc2ccc(O)cc2)C(=O)N[C@@H](CO)C(=O)N[C@@H](CC(N)=O)C(=O)N[C@@H](CCCNC(=N)N)C(=O)N[C@@H](CCN)C(=O)N[C@@H]([C@@H](C)O)C(=O)N[C@H](CCN)C(=O)N[C@@H](CCCCN)C(=O)N[C@@H](CO)C(=O)N[C@@H](CCN)C(=O)N[C@H](C(=O)N[C@@H](Cc2ccc(O)cc2)C(=O)O)CSSC1(C)C [Example 47, Val-Hyp-Ile-Pen-Tyr-Ser-Asn-Arg-Dab-Thr-^DDab-Lys-Ser-Dab-Cys-Tyr] (H-V[Hyp]I[Pen]YSNR[Dab]T[dDab]KS[Dab]CY-OH; disulfide 4-15) | <1
5 | 0.5 | 0.25 | 0.25 | CC[C@H](C)[C@H](NC(=O)[C@@H]1C[C@@H](O)CN1C(=O)[C@@H](N)C(C)C)C(=O)N[C@@H]1C(=O)N[C@@H](Cc2ccc(O)cc2)C(=O)N[C@@H](CCN)C(=O)N[C@@H](CC(N)=O)C(=O)N[C@@H](CCCNC(=N)N)C(=O)N[C@@H](CCN)C(=O)N[C@@H]([C@@H](C)O)C(=O)N[C@H](CCN)C(=O)N[C@@H](CCCCN)C(=O)N[C@@H](CO)C(=O)N[C@@H](CO)C(=O)N[C@H](C(=O)N[C@@H](Cc2ccc(O)cc2)C(=O)O)CSSC1(C)C [Example 48, Val-Hyp-Ile-Pen-Tyr-Dab-Asn-Arg-Dab-Thr-^DDab-Lys-Ser-Ser-Cys-Tyr] (H-V[Hyp]I[Pen]Y[Dab]NR[Dab]T[dDab]KSSCY-OH; disulfide 4-15) | <1
6 | 0.5 | 0.25 | 0.25 | CC[C@H](C)[C@H](NC(=O)[C@@H]1C[C@@H](O)CN1C(=O)[C@@H](N)C(C)C)C(=O)N[C@@H]1C(=O)N[C@@H](Cc2ccc(O)cc2)C(=O)N[C@@H](CCN)C(=O)N[C@@H](CC(N)=O)C(=O)N[C@@H](CCCNC(=N)N)C(=O)N[C@@H](CCN)C(=O)N[C@@H]([C@@H](C)O)C(=O)N[C@H](CCN)C(=O)N[C@@H](CCCCN)C(=O)N[C@@H]([C@@H](C)O)C(=O)N[C@@H](CCCNC(N)=O)C(=O)N[C@H](C(=O)N[C@@H](Cc2ccc(O)cc2)C(=O)O)CSSC1(C)C [Example 49, Val-Hyp-Ile-Pen-Tyr-Dab-Asn-Arg-Dab-Thr-^DDab-Lys-Thr-Cit-Cys-Tyr] (H-V[Hyp]I[Pen]Y[Dab]NR[Dab]T[dDab]KT[Cit]CY-OH; disulfide 4-15) | <1
7 | 1 | 0.5 | 0.5 | CC[C@H](C)[C@@H]1NC(=O)[C@H]([C@@H](C)O)NC(=O)[C@H](CCCCN)NC(=O)[C@@H](CCN)NC(=O)[C@H]([C@@H](C)O)NC(=O)[C@H](CCN)NC(=O)[C@H](CCCNC(=N)N)NC(=O)[C@H](CC(N)=O)NC(=O)[C@H](CCN)NC(=O)[C@H](Cc2ccc(O)cc2)NC(=O)[C@@H](NC(=O)[C@@H](NC(=O)[C@@H]2C[C@@H](O)CN2C(=O)[C@@H](N)C(C)C)[C@@H](C)CC)C(C)(C)SSC[C@@H](C(=O)N[C@@H](Cc2ccc(O)cc2)C(=O)O)NC1=O [Example 50, Val-Hyp-Ile-Pen-Tyr-Dab-Asn-Arg-Dab-Thr-^DDab-Lys-Thr-Ile-Cys-Tyr] (H-V[Hyp]I[Pen]Y[Dab]NR[Dab]T[dDab]KTICY-OH; disulfide 4-15) | <1
8 | 0.5 | 0.25 | 0.25 | CC[C@H](C)[C@H](NC(=O)[C@@H]1C[C@@H](O)CN1C(=O)[C@@H](N)C(C)C)C(=O)N[C@@H]1C(=O)N[C@@H](Cc2ccc(O)cc2)C(=O)N[C@@H](CCN)C(=O)N[C@@H](CC(N)=O)C(=O)N[C@@H](CCCNC(=N)N)C(=O)N[C@@H](CCN)C(=O)N[C@@H]([C@@H](C)O)C(=O)N[C@H](CCN)C(=O)N[C@@H](CCCCN)C(=O)N[C@@H]([C@@H](C)O)C(=O)N[C@@H](CC(N)=O)C(=O)N[C@H](C(=O)N[C@@H](Cc2ccc(O)cc2)C(=O)O)CSSC1(C)C [Example 51, Val-Hyp-Ile-Pen-Tyr-Dab-Asn-Arg-Dab-Thr-^DDab-Lys-Thr-Asn-Cys-Tyr] (H-V[Hyp]I[Pen]Y[Dab]NR[Dab]T[dDab]KTNCY-OH; disulfide 4-15) | <1
9 | 1 | 0.25 | 0.25 | CC[C@H](C)[C@H](NC(=O)[C@@H]1C[C@@H](O)CN1C(=O)[C@@H](N)C(C)C)C(=O)N[C@@H]1C(=O)N[C@@H](Cc2ccc(O)cc2)C(=O)N[C@@H](CCN)C(=O)N[C@@H](CC(N)=O)C(=O)N[C@@H](CCCNC(=N)N)C(=O)N[C@@H](CCN)C(=O)N[C@@H]([C@@H](C)O)C(=O)N[C@H](CCN)C(=O)N[C@@H](CCCCN)C(=O)N[C@@H]([C@@H](C)O)C(=O)N[C@@H](CO)C(=O)N[C@H](C(=O)N[C@@H](Cc2ccc(O)cc2)C(=O)O)CSSC1(C)C [Example 52, Val-Hyp-Ile-Pen-Tyr-Dab-Asn-Arg-Dab-Thr-^DDab-Lys-Thr-Ser-Cys-Tyr] (H-V[Hyp]I[Pen]Y[Dab]NR[Dab]T[dDab]KTSCY-OH; disulfide 4-15) | <1
10 | 1 | 0.25 | 0.25 | CC[C@H](C)[C@H](NC(=O)[C@@H]1C[C@@H](O)CN1C(=O)[C@@H](N)C(C)C)C(=O)N[C@@H]1C(=O)N[C@@H](Cc2ccc(O)cc2)C(=O)N[C@@H](CO)C(=O)N[C@@H](CC(N)=O)C(=O)N[C@@H](CCCNC(=N)N)C(=O)N[C@@H](CCN)C(=O)N[C@@H]([C@@H](C)O)C(=O)N[C@H](CCN)C(=O)N[C@@H](CCCCN)C(=O)N[C@@H](CCCNC(N)=O)C(=O)N[C@@H](CCN)C(=O)N[C@H](C(=O)N[C@@H](Cc2ccc(O)cc2)C(=O)O)CSSC1(C)C [Example 53, Val-Hyp-Ile-Pen-Tyr-Ser-Asn-Arg-Dab-Thr-^DDab-Lys-Cit-Dab-Cys-Tyr] (H-V[Hyp]I[Pen]YSNR[Dab]T[dDab]K[Cit][Dab]CY-OH; disulfide 4-15) | <1
11 | 0.25 | 0.0625 | 0.125 | CC[C@H](C)[C@H](NC(=O)[C@@H]1C[C@@H](O)CN1C(=O)[C@@H](N)C(C)C)C(=O)N[C@@H]1C(=O)N[C@@H](Cc2ccc(O)cc2)C(=O)N[C@@H](CO)C(=O)N[C@@H](CC(N)=O)C(=O)N[C@@H](CCCNC(=N)N)C(=O)N[C@@H](CCN)C(=O)N[C@@H]([C@@H](C)O)C(=O)N[C@H](CCN)C(=O)N[C@@H](CCCCN)C(=O)N[C@@H](CCCNC(=N)N)C(=O)N[C@@H](CCN)C(=O)N[C@H](C(=O)N[C@@H](Cc2ccc(O)cc2)C(=O)O)CSSC1(C)C [Example 54, Val-Hyp-Ile-Pen-Tyr-Ser-Asn-Arg-Dab-Thr-^DDab-Lys-Arg-Dab-Cys-Tyr] (H-V[Hyp]I[Pen]YSNR[Dab]T[dDab]KR[Dab]CY-OH; disulfide 4-15) | <1
